In US7105521B2, “Eugenosedin-A based pharmacoligical agents” (Syn-Tech Chem & Pharm Co., Ltd., priority 2003, dated 2006):
Entries after “also recorded” stand apart in the source; their conditions may differ.

Key:
[1] = test system: α2-adrenoceptor; test: Intra-cisternal antagonism of clonidine-induced hypotension and bradycardia; format: in vivo, rats
Experimental: Intra-cisternal injections. […] Briefly, rats weighing 250–300 g were anaesthetized with pentobarbital sodium (50 mg kg^−1, i.p.) and mounted in a David-Kopf stereotaxic instrument (Yeh J L. et al., Brain. Res. Bull., 30:641–648, 1993). The calvarium was exposed and a 1 mm diameter trephine hole was drilled 1.8 mm lateral to the coronary and 1.5 mm posterior to the sagittal sutures. A cannula (0.7 mm O.D.) connected to a Hamilton syringe (RN-705, 5051) by PE-50 was advanced 4.7 mm into the brain using the electrode carrier.

[2] = molecular target: α1 receptors; test: Receptor binding, [3H]prazosin, rat cortex; parameters: species or system Wistar rat
Experimental: (§1) Drugs and chemicals. […] Eugenosedin-A synthesized in this laboratory was solvated in 50% absolute alcohol, 10% propylene glycol and further diluted with distilled water. All of the [^3H] ligand was purchased from New England Nuclear Corp. (Boston, Mass., U.S.A.).
(§2) Receptor binding studies. […] The homogenate was pressure filtered through muslin. Filtrate was centrifuged at 1000 g for 10 min. Supernatant was centrifuged at 10,000 g for 12 min at 4° C. The second supernatant was centrifuged at 30,000 g for 15 min at 4° C. The final pellet was re-suspended in assay buffer (75 mM Tris HCl, 25 mM MgCl2, pH 7.4). Protein content was determined by Bradford's method. Radioligand agents and membranes (200–300 μg) were incubated for 60 min at 25° C. with or without the addition of nonspecific binding agents, in a 75 mM Tris HCl buffer with 25 mM MgCl2, to make a final volume of 500 μl. In competitive-binding experiments, the competing agent was added directly to the incubation mixture. Incubation was terminated by addition of 1 ml of ice-cold assay buffer followed by immediate filtration through Whatman GF/C glass fiber filters supported on a 12-port filter manifold (Millipore). The filters were immediately washed 3 times with 5 ml of ice-cold assay buffer and dried in an oven at 60° C. for 2 hours before adding 5 ml of Triton-toluene-based scintillation fluid. Membrane-bound radioligand trapped in the filters was counted in a Beckman LS6500 scintillation system (Fullerton, Calif., U.S.A) with an efficiency of 45%. In each experiment, nonspecifically bound radioligand agents were determined by incubating membrane protein. Specific binding for each sample was obtained by deducting this value from the total binding of radioligand agents.

[3] = molecular target: α2 receptors; test: Receptor binding, [3H]yohimbine, rat cortex; parameters: species or system Wistar rat
Experimental: as §1, §2

[4] = molecular target: T1, β2 receptors (Rattus norvegicus, UniProt P10608); test: Receptor binding, [3H]CGP-12177, rat lung; parameters: species or system Wistar rat
T1 construct: with [^3H]CGP-12177 on β2 receptors in rat lung; from tissue; host or cells: Wistar rat lung membranes
Experimental: as §1
as §2, with “Incubation was terminated by addition of 1 ml of ice-cold assay buffer followed by immediate filtration through Whatman GF/C glass fiber filters supported on a 12-port filter manifold (Millipore). The filters were immediately washed 3 times with 5 ml of ice-cold assay buffer and dried in an oven at 60° C. for 2 hours before adding 5 ml of Triton-toluene-based scintillation fluid.” left out, “Specific binding for each sample was obtained by deducting this value from the total binding of radioligand agents.” left out

[5] = molecular target: T2, β1 receptors (Rattus norvegicus, UniProt P18090); test: Receptor binding, [3H]CGP-12177, rat ventricle; parameters: species or system Wistar rat
T2 construct: with [^3H]CGP-12177 on β1 receptors in rat ventricle; from tissue; host or cells: Wistar rat heart (ventricle) membranes
Experimental: as §1
as §2, with “Incubation was terminated by addition of 1 ml of ice-cold assay buffer followed by immediate filtration through Whatman GF/C glass fiber filters supported on a 12-port filter manifold (Millipore). The filters were immediately washed 3 times with 5 ml of ice-cold assay buffer and dried in an oven at 60° C. for 2 hours before adding 5 ml of Triton-toluene-based scintillation fluid.” left out, “Specific binding for each sample was obtained by deducting this value from the total binding of radioligand agents.” left out

[6] = molecular target: T3, 5-HT re-uptake sites (Rattus norvegicus, UniProt P31652); test: 5-HT re-uptake in cerebral cortex synaptosomes; format: biochemical, Wistar rats
T3 construct: the cerebral cortex or striatum was dissected and crude synaptosomes were prepared; from tissue; host or cells: crude synaptosomes of Wistar rat cerebral cortex
Experimental: Saline was added to the incubation mixture, which was then filtered through a Whatman GF/B glass filter under reduced pressure. To determine nonspecific uptake, incubation was performed at 0° C.

[7] = Peroxyl radical scavenging, B-phycoerythrin/AAPH; format: biochemical
Experimental: The stoichiometric factors of the test compounds with hydrophilic peroxyl radicals were calculated by the equation as mentioned Ascorbic acid was used as a positive control.

[8] = LPS-induced vascular hyporeactivity of isolated aorta to phenylephrine; format: in vivo, rats
Text: (§3) Isolation of rat thoracic aorta. Rat thoracic aorta was removed, cleaned of adhering fat and connective tissue and cut into 3–4 mm wide transverse rings.

[9] = test system: TNF-α; test: Plasma cytokine immunoreactivity after LPS: TNF-α; format: in vivo, Wistar rats
Experimental: (§4) Plasma cytokine immunoreactivity and blood glucose. Blood was collected from venous cannula, injected into ice-cold heparinized Eppendorf tubes and centrifuged at 1500 rpm for 10 min at 4° C. Plasma supernatant was stored at −70° C. until analyzed. Solid phase enzyme immunoassay that specifically detects murine IL-1β, IL-6, IFN-γ and TNF-α was used with a detection limit of >10 pg/ml (Endogen, U.S.A). Pretreatment with eugenosedin-A and other agents was performed 15 minutes before intravenous injection of LPS. Blood was collected from venous cannula. Blood glucose was measured with a glucose test strip (Glucotide, Bayer, U.S.A) at 1, 3 and 5 hours.

[10] = Blood glucose after LPS; format: in vivo, Wistar rats
Experimental: as §4

[11] = Survival rate after LPS; format: in vivo, ddk mice; conditions: pretreatment 0.5, 1, 5 mg kg^−1 i.p., LPS 60 mg kg^−1
[12] = molecular target: T4, 5-HT2A receptor (Rattus norvegicus, UniProt P14842); test: 5-HT-induced contraction of isolated rat thoracic aorta; format: cell-based; parameters: from tissue; host or cells: rat thoracic aorta rings
Text: as §3

[13] = molecular target: T4, 5-HT2A receptor; test: Receptor binding, [3H]ketanserin, rat cortex; parameters: from tissue; host or cells: Wistar rat cortex membranes; species or system Wistar rat
Experimental: as §1, §2

T4 sequence (P14842 whole entry): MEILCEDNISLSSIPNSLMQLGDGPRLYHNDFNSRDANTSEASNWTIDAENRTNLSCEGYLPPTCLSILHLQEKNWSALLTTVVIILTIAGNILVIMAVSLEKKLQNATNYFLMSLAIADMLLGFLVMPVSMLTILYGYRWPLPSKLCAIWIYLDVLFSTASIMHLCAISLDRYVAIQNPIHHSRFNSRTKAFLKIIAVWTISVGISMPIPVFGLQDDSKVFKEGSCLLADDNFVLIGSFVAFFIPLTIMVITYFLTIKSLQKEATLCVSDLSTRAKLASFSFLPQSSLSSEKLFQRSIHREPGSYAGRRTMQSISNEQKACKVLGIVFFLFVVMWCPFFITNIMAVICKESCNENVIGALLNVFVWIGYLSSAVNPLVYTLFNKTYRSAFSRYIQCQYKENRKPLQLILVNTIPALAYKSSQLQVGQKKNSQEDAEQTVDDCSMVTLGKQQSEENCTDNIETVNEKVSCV
T3 sequence (P31652 whole entry): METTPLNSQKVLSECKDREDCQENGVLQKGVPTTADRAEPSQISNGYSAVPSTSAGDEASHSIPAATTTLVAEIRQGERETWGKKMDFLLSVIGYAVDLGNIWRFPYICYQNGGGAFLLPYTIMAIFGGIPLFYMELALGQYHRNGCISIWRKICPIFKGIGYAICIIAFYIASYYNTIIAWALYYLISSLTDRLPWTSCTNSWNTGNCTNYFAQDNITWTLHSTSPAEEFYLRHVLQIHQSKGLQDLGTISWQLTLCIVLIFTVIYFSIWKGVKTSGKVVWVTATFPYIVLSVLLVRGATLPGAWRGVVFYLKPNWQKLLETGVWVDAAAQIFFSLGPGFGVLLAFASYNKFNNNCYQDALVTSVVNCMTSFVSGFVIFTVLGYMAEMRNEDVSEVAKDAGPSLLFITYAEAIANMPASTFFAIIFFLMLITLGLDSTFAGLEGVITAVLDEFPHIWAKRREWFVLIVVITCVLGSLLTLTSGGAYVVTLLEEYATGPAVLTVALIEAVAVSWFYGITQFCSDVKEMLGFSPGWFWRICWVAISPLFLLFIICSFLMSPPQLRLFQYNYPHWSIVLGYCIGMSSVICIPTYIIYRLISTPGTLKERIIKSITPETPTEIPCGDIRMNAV
T1 sequence (P10608 whole entry): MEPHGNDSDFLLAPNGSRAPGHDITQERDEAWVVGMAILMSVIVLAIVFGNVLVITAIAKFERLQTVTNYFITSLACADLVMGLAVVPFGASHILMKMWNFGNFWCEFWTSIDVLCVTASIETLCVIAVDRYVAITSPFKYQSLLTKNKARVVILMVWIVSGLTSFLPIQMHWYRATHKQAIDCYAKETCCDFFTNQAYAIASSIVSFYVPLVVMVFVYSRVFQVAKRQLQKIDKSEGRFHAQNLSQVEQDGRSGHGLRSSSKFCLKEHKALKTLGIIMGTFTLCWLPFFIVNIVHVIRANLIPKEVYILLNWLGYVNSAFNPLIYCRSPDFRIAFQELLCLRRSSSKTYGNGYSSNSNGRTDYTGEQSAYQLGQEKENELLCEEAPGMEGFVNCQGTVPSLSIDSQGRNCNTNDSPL
T2 sequence (P18090 whole entry): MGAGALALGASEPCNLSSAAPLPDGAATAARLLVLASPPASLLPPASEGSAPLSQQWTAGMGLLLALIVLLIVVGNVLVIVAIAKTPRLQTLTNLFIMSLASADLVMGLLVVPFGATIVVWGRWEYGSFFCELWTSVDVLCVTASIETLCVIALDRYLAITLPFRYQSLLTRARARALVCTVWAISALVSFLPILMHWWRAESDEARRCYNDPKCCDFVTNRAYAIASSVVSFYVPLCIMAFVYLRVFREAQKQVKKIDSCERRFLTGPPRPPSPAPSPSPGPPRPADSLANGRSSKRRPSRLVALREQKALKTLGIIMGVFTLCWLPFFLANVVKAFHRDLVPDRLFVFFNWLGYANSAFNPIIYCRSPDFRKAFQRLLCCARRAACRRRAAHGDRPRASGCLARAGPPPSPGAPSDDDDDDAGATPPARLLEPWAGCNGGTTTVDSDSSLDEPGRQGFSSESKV

CC=Cc1ccc(OCC(O)CN2CCN(c3ccccc3Cl)CC2)c(OC)c1 (stereo not drawn) [eugenosedin-A]
bradycardic effect of clonidine ([1]; 0.3 μmol): reduced the bradycardic effect of clonidine
hypotensive effect of clonidine ([1]; given 15 min before clonidine injection): antagonized the hypotensive effect of clonidine
clonidine-induced bradycardia ([1]; low dose, 0.03 μmol): did not inhibit clonidine-induced bradycardia
Ki [2]: 0.142 µM
order of α1 receptor binding potency [2]: prazosin >ketanserin >eugenosedin-A >methylsergide, propranolol and 5-HT
Ki [3]: 1.39 µM
order of α2 receptor binding potency [3]: prazosin >eugenosedin-A >ketanserin >methylsergide >propranolol and 5-HT
Ki [4]: > 10 µM
binding affinity for β1-adrenoceptors [5]: some binding affinity for β1-adrenoceptors
IC50 [6]: 34.3 µM
scavenging of AAPH-derived peroxyl radicals (B-phycoerythrin fluorescence, lag time) [7]: concentration-dependent decrement of fluorescence and prolongation of the lag time
aortic contractility to phenylephrine in LPS-treated rats ([8]; 1 mg kg^−1 i.v. before or after LPS, phenylephrine 10^−8~10^−4 M): increased aortic contractility more than the vehicle group
protection from LPS-induced hyporeactivity of the aorta compared with yohimbine, trazodone, aminoguanidine and ascorbic acid ([8]; rat, in vivo): more effective
LPS-induced increase in TNF-α ([9]; 3 hours after LPS 10 mg kg^−1 i.v., pretreatment (eugenosedin-A 1 mg kg^−1 i.v.)): significantly inhibited
LPS-induced increase in TNF-α ([9]; 5 hours after LPS 10 mg kg^−1 i.v., pretreatment): significantly reduced
initial hyperglycemic response to LPS ([10]; blood glucose at 1 and 3 hours after LPS): inhibited the initial hyperglycemic response to LPS
hypoglycemic response to LPS ([10]; blood glucose at 5 hours after LPS): did not reverse the hypoglycemic response
survival rate after LPS ([11]; at 12 hrs): significantly increased
time of LPS-induced death [11]: 36 h
Kb [12]: 0.00209 µM
5-HT-induced contractile activities ([12]; 10^−8, 10^−7, 10^−6 M, isolated rat thoracic aorta): concentration-dependently inhibited
binding affinity for 5-HT2A receptors [13]: higher binding affinity than other β-adrenergic antagonists; also recorded: higher binding affinity than propranolol
order of potency on 5-HT2A receptors [13]: ketanserin >methylsergide >eugenosedin-A >5-HT >propranolol >prazosin
Ki ([13]; [3H]ketanserin, rat cortex): 0.0333 µM
